Test results from article PMC12015381, “Target Agnostic Photoaffinity Labelling by Sulfonylhydrazones” (Angewandte Chemie (International Ed. in English), 2025).
pIC50: −log10 of the molar value.

Tests used:
[1] = biological target: T1, STAT5b (Signal transducer and activator of transcription 5b) (Homo sapiens, UniProt P51692); assay: covalent photolabelling by tryptic digestion and LC-MS/MS; STAT5b inhibition assay with irradiation (no inhibition under […] without irradiation); format: binding
T1 sequence (P51692 1-787): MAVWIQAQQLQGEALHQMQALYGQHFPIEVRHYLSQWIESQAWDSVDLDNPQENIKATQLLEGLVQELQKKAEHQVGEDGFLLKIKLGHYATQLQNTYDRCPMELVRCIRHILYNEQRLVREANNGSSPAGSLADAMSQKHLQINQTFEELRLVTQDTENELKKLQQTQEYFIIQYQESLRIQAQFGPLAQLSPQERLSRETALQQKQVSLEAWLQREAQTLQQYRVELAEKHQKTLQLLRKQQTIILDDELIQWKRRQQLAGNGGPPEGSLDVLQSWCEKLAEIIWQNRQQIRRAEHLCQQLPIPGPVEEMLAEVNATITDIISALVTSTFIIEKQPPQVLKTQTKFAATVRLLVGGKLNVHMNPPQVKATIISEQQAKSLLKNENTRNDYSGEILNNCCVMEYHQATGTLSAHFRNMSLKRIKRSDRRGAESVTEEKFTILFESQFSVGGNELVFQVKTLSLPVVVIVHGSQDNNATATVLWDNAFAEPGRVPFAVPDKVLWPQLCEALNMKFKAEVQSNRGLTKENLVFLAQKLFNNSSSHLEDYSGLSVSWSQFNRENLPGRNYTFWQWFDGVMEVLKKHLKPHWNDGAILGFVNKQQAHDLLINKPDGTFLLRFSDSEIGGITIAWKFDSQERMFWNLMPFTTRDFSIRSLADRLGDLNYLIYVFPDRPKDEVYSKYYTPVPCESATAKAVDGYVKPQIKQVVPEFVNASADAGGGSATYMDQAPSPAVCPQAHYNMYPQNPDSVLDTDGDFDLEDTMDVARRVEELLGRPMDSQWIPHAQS

[2] = biological target: acetylcholine esterase (AChE) (Electrophorus electricus, UniProt O42275); assay: biochemical enzyme inhibition assay after photoactivation at […] nm (no inhibition without irradiation); covalent labelling by enzymatic digestion and MS
acetylcholine esterase (AChE), sequence (O42275 24-633): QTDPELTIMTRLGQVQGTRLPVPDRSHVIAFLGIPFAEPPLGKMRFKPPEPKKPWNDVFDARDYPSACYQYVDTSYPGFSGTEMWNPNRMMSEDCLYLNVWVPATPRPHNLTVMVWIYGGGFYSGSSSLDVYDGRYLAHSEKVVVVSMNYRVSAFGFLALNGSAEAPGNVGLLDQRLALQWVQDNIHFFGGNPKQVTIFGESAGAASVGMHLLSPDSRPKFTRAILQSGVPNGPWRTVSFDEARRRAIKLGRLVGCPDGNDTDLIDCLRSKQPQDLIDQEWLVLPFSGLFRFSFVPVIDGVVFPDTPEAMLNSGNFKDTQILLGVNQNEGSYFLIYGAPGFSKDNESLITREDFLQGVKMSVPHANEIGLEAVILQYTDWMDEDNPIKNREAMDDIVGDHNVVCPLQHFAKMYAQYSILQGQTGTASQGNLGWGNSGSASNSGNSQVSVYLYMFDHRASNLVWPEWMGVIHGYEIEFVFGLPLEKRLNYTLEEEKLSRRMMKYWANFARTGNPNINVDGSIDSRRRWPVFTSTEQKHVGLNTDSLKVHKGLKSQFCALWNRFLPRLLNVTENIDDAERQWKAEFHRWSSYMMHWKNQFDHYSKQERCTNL

Row | Compound | pIC50 [1] | pIC50 [2]
1 | O=c1c(/C=N/NS(=O)(=O)c2cccnc2)coc2ccccc12 [compound 10, 10] | 4.62 | –
2 | COc1cc2c(cc1OC)C(=NNS(=O)(=O)c1ccc(C)cc1)C(CC1CCN(Cc3ccccc3)CC1)C2 (centres unmarked) [compound 12, donepezil-tosylhydrazone] | – | 6.42
